{"source": "ChEMBL document CHEMBL1201862", "about": "“PubChem BioAssay data set” (2004)", "experiment_in_all_cases": "growth of human tumour cells (NCI), 48 h", "key": {"[1]": {"test_system": "NCI-H460"}, "[2]": {"test_system": "OVCAR-4"}, "[3]": {"test_system": "SK-MEL-5"}, "[4]": {"test_system": "HCT-15"}, "[5]": {"test_system": "HL-60"}, "[6]": {"test_system": "SK-OV-3"}, "[7]": {"test_system": "A549"}, "[8]": {"test_system": "UACC-257"}, "[9]": {"test_system": "NCI/ADR-RES"}, "[10]": {"test_system": "KM12"}, "[11]": {"test_system": "LOX IMVI"}, "[12]": {"test_system": "RPMI-8226"}, "[13]": {"test_system": "Malme-3M"}, "[14]": {"test_system": "A498"}, "[15]": {"test_system": "HCC 2998"}, "[16]": {"test_system": "U-251"}, "[17]": {"test_system": "CAKI-1"}, "[18]": {"test_system": "SF-295"}, "[19]": {"test_system": "HCT-116"}, "[20]": {"test_system": "M14"}, "[21]": {"test_system": "SF-539"}, "[22]": {"test_system": "PC-3"}, "[23]": {"test_system": "HOP-62"}, "[24]": {"test_system": "NCI-H23"}, "[25]": {"test_system": "SF-268"}, "[26]": {"test_system": "Hs-578T"}, "[27]": {"test_system": "SNB-75"}, "[28]": {"test_system": "SK-MEL-28"}, "[29]": {"test_system": "EKVX"}, "[30]": {"test_system": "MOLT-4"}, "[31]": {"test_system": "UACC-62"}, "[32]": {"test_system": "786-0"}, "[33]": {"test_system": "MCF7"}, "[34]": {"test_system": "HT-29"}, "[35]": {"test_system": "IGROV-1"}, "[36]": {"test_system": "MDA-MB-435"}, "[37]": {"test_system": "T47D"}, "[38]": {"test_system": "COLO 205"}, "[39]": {"test_system": "CCRF-CEM"}, "[40]": {"test_system": "SK-MEL-2"}, "[41]": {"test_system": "SNB-19"}, "[42]": {"test_system": "NCI-H522"}, "[43]": {"test_system": "ACHN"}, "[44]": {"test_system": "SN12C"}, "[45]": {"test_system": "NCI-H226"}, "[46]": {"test_system": "SW-620"}, "[47]": {"test_system": "OVCAR-5"}, "[48]": {"test_system": "RXF 393"}, "[49]": {"test_system": "OVCAR-8"}, "[50]": {"test_system": "OVCAR-3"}, "[51]": {"test_system": "MDA-N"}, "[52]": {"test_system": "TK-10"}, "[53]": {"test_system": "K562"}, "[54]": {"test_system": "DU-145"}, "[55]": {"test_system": "MDA-MB-231"}}, "note": "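These data come from cells grown in 96-well plates and exposed to compound for 48 hours at five concentrations. GI50 = concentration required for 50% inhibition of growth.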 Calls of active or inactive are those of the source. Cut-off read from the data, not from the text of the source: active = GI50 up to about 1.1 µM and inactive = higher.", "data": [{"smiles": "O=C(NC(C(F)(F)F)(C(F)(F)F)P(=O)(c1ccccc1)c1ccccc1)C(C(F)(F)F)C(F)(F)F", "values": [{"measurement": "GI50", "setting": "[1]", "result": "42.3 µM (inactive)"}, {"measurement": "GI50", "setting": "[2]", "result": "37.7 µM (inactive)"}, {"measurement": "GI50", "setting": "[3]", "result": "17.8 µM (inactive)"}, {"measurement": "GI50", "setting": "[4]", "result": 30, "unit": "µM"}, {"measurement": "GI50", "setting": "[5]", "result": "26.5 µM (inactive)"}, {"measurement": "GI50", "setting": "[6]", "result": "> 100 µM (inactive)"}, {"measurement": "GI50", "setting": "[7]", "result": "34.6 µM (inactive)"}, {"measurement": "GI50", "setting": "[8]", "result": "29.4 µM (inactive)"}, {"measurement": "GI50", "setting": "[9]", "result": "21.6 µM (inactive)"}, {"measurement": "GI50", "setting": "[10]", "result": "26.2 µM (inactive)"}, {"measurement": "GI50", "setting": "[11]", "result": "23.2 µM (inactive)"}, {"measurement": "GI50", "setting": "[12]", "result": "33.6 µM (inactive)"}, {"measurement": "GI50", "setting": "[13]", "result": "14.2 µM (inactive)"}, {"measurement": "GI50", "setting": "[14]", "result": "> 100 µM (inactive)"}, {"measurement": "GI50", "setting": "[15]", "result": "> 100 µM (inactive)"}, {"measurement": "GI50", "setting": "[16]", "result": "36.6 µM (inactive)"}, {"measurement": "GI50", "setting": "[17]", "result": "0.0131 µM (active)"}, {"measurement": "GI50", "setting": "[18]", "result": "48.4 µM (inactive)"}, {"measurement": "GI50", "setting": "[19]", "result": "18.5 µM (inactive)"}, {"measurement": "GI50", "setting": "[20]", "result": "17.1 µM (inactive)"}, {"measurement": "GI50", "setting": "[21]", "result": "22.8 µM (inactive)"}, {"measurement": "GI50", "setting": "[22]", "result": "27.8 µM (inactive)"}, {"measurement": "GI50", "setting": "[23]", "result": "> 100 µM (inactive)"}, {"measurement": "GI50", "setting": "[24]", "result": "21.7 µM (inactive)"}, {"measurement": "GI50", "setting": "[25]", "result": "28.9 µM (inactive)"}, {"measurement": "GI50", "setting": "[26]", "result": "54 µM (inactive)"}, {"measurement": "GI50", "setting": "[27]", "result": "20.8 µM (inactive)"}, {"measurement": "GI50", "setting": "[28]", "result": "32.9 µM (inactive)"}, {"measurement": "GI50", "setting": "[29]", "result": "> 100 µM (inactive)"}, {"measurement": "GI50", "setting": "[30]", "result": "26.7 µM (inactive)"}, {"measurement": "GI50", "setting": "[31]", "result": "56 µM (inactive)"}, {"measurement": "GI50", "setting": "[32]", "result": "18.9 µM (inactive)"}, {"measurement": "GI50", "setting": "[33]", "result": "26.2 µM (inactive)"}, {"measurement": "GI50", "setting": "[34]", "result": "14.5 µM (inactive)"}, {"measurement": "GI50", "setting": "[35]", "result": "25.7 µM (inactive)"}, {"measurement": "GI50", "setting": "[36]", "result": "18.7 µM (inactive)"}, {"measurement": "GI50", "setting": "[37]", "result": "> 100 µM (inactive)"}, {"measurement": "GI50", "setting": "[38]", "result": "20.2 µM (inactive)"}, {"measurement": "GI50", "setting": "[39]", "result": "41.8 µM (inactive)"}, {"measurement": "GI50", "setting": "[40]", "result": "40.6 µM (inactive)"}, {"measurement": "GI50", "setting": "[41]", "result": "71.3 µM (inactive)"}, {"measurement": "GI50", "setting": "[42]", "result": "25.9 µM (inactive)"}, {"measurement": "GI50", "setting": "[43]", "result": "16.7 µM (inactive)"}, {"measurement": "GI50", "setting": "[44]", "result": "27.9 µM (inactive)"}, {"measurement": "GI50", "setting": "[45]", "result": "68.9 µM (inactive)"}, {"measurement": "GI50", "setting": "[46]", "result": "40.6 µM (inactive)"}, {"measurement": "GI50", "setting": "[47]", "result": "34.2 µM (inactive)"}, {"measurement": "GI50", "setting": "[48]", "result": "20.2 µM (inactive)"}, {"measurement": "GI50", "setting": "[49]", "result": "29.3 µM (inactive)"}, {"measurement": "GI50", "setting": "[50]", "result": "25.8 µM (inactive)"}, {"measurement": "GI50", "setting": "[51]", "result": "20.4 µM (inactive)"}, {"measurement": "GI50", "setting": "[52]", "result": "37.2 µM (inactive)"}, {"measurement": "GI50", "setting": "[53]", "result": "33.6 µM (inactive)"}, {"measurement": "GI50", "setting": "[54]", "result": "> 100 µM (inactive)"}, {"measurement": "GI50", "setting": "[55]", "result": "24.2 µM (inactive)"}]}]}
